In patent US11229628B2, “TRPA1 and TRPV4 inhibitors and methods of using the same for organ-specific inflammation and itch” (Duke University, priority 2015, dated 2022):
One block for each compound: values may come before it.

Assays:
BL6 mice = test: Formalin-evoked nocifensive behavior, whiskerpad injection pain model in mice; assay type: in vivo, mouse; details: for formalin-evoked nocifensive behavior at the 45-min time-point / formalin-evoked nocifensive behavior, time course: 0.5 mM/10 μL whiskerpad; for formalin-evoked nocifensive behavior, quantitation (in particular second phase): pre-injected into whiskerpad at 0.5 mM/10 μL, 15 min before formalin
Method: Compounds were tested for their effect in reducing pain using an in vivo pain model in mice. For mouse formalin-evoked irritant behavior measurements, mice were well-fed, well-rested, and tested at the same time of day, at the same time-point of their circadian rhythm. They were allowed to acclimate to a plexiglas chamber for at least 30 min before testing, and received 10 μL subcutaneous injection of 4% of formalin (diluted from an aqueous solution of commercial 37% formaldehyde with normal saline (NS)) through a 30-gauge needle into the right whiskerpad, as further detailed in Luccarini et al. (J. Pain, 2006, 7, 908-914). Normal saline was used as control injection. After injection, mice were immediately placed back into the chamber and the rubbing behavior was recorded by a private consumer-type video-camera for a 45 min observation period. The recording time was divided into 9 blocks of 5 min, and a nociceptive score was determined per block by measuring the time that the animals spent rubbing the injected area predominantly with the ipsilateral fore-paw and rarely with hind-paw. This rubbing behavior with fore-paw is evoked by pain, which is distinct from itch behavior. Behavioral analysis was conducted by observers blinded to treatment.
To investigate the effects of the specific compounds GSK205, 16-8, and 16-8/18hy on formalin-induced nociceptive behavior, mice received a single subcutaneous injection of the compounds into the whiskerpad (10 μL, dissolved in 4% DMSO) 15 min before formalin injection. Control animals received the same volume of NS, 4% DMSO.
Note the biphasic response and “clean” controls. […] This concentration had no effect on residual nocifensive behavior in Trpv4−/− mice. […] Also note that none of the compounds influenced the first phase, which was caused by the direct irritation that formalin causes on peripheral whisker-pad nerve endings.

human TRPA1 = target: T1, human TRPA1 (Homo sapiens, UniProt O75762); test: Ca2+ transient in N2a cells transfected with human TRPA1, evoked by AITC; assay type: cell-based; details: for inhibitory activity against human TRPA1: 5 μM compound
T1 construct: expressed in transfected cells; host or cells: N2a cells
T1 sequence (O75762 whole entry): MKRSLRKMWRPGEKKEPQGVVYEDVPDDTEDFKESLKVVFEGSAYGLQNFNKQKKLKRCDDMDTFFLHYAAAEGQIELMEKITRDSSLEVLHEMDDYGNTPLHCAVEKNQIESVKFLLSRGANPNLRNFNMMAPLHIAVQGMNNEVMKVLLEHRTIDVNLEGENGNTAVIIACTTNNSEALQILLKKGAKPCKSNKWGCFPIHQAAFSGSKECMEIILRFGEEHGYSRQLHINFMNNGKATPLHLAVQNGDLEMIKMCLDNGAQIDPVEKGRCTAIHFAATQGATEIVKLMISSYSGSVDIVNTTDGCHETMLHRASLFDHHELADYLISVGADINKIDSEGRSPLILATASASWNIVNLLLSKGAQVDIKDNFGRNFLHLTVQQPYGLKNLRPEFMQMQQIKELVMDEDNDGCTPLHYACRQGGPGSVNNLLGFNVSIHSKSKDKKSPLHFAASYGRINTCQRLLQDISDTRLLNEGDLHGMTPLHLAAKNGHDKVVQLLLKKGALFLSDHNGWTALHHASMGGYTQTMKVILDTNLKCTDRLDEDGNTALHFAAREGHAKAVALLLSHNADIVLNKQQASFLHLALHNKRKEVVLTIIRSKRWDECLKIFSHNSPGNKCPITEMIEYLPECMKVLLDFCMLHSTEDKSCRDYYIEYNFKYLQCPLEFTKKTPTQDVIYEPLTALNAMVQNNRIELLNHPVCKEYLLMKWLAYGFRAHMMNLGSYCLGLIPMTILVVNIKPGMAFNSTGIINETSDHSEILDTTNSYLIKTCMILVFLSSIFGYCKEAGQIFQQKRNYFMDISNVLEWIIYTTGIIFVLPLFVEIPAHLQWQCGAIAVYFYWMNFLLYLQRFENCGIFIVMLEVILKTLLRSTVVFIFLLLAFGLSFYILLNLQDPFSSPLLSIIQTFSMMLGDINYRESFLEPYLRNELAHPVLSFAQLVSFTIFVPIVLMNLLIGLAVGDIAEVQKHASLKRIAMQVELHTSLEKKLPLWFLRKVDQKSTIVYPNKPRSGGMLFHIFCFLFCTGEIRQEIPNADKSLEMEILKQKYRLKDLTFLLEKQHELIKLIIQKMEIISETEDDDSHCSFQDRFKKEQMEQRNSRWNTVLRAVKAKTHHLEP
Method: Compounds were tested for their effect on TRPA1. N2a permanent cells were transfected with human TRPA1 cDNA, using a pcDNA3.1 expression plasmid. They were co-transfected with eGFP-expressing plasmid, or, for control, with eGFP plasmid only.
Cells were then pre-exposed to 5 μM of compounds 16-8 and 16-8/18hy for 10 min.
Averaged Ca2+ signal is shown from >75 cells. The resulting Ca2+ transient evoked by 60 μM AITC was reduced by >80% upon administration of compound 16-8 or 16-8/18hy at 5 μM, indicating appreciable TRPA1-inhibitory effects of both compounds.

human TRPV1 = target: T2, human TRPV1 (Homo sapiens, UniProt Q8NER1); test: Ca2+ signal in N2a cells transfected with human TRPV1 (capsaicin stimulation); assay type: cell-based; details: 5 μM capsaicin stimulation
T2 construct: expressed in transfected cells; host or cells: N2a cells
T2 sequence (Q8NER1 whole entry): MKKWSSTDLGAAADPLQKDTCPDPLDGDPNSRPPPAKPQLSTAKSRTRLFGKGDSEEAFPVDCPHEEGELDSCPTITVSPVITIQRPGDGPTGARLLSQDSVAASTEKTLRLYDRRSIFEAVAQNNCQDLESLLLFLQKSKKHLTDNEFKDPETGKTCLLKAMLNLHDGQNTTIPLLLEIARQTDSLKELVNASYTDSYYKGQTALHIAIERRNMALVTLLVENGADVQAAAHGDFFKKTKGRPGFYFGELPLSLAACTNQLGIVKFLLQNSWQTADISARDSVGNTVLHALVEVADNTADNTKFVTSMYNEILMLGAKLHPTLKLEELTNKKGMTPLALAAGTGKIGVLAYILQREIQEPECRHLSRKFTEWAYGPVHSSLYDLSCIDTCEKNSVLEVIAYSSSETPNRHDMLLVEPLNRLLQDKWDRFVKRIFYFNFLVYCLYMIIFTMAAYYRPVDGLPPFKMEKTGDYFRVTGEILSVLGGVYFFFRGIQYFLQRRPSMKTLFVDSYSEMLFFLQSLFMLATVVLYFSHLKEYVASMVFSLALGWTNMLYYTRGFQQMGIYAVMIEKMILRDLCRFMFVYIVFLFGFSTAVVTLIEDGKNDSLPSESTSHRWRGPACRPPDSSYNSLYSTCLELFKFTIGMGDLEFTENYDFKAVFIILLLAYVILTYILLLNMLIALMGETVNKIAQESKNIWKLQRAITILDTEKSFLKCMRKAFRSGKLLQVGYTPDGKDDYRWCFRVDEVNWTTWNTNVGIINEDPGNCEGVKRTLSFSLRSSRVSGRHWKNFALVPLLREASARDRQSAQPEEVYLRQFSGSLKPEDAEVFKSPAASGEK
Method: (§1) Compounds were tested for their effect on TRPV1, TRPV2, and TRPV3. Methods were similar to those described in Example 15. Briefly, N2a cells were transfected with human TRPV1, TRPV2, or TRPV3. eGFP-transfection was used as control. For specific stimulation of TRPV1, 5 μM capsaicin was used. For stimulation of TRPV2, hypotonicity (260 mosmol/L) was used, based on previous reports of TRPV2 being osmotically responsive. N2a cells were not responsive to hypotonicity, and neither were control-transfected cells. For TRPV3-expressing cells, camphor (20% of a commercially available stock solution) was used. […] Stimulation and control protocols were applied as for TRPA1-expressing N2a cells as detailed above in Example 15.
(§2) For TRPV1, TRPV2, and TRPV3, Ca2+ transience was not affected by administration of 16-8 or 16-8/18hy.

human TRPV3 = target: T3, human TRPV3 (Homo sapiens, UniProt Q8NET8); test: Ca2+ signal in N2a cells transfected with human TRPV3 (camphor stimulation); assay type: cell-based
T3 construct: expressed in transfected cells; host or cells: N2a cells
T3 sequence (Q8NET8 1-790): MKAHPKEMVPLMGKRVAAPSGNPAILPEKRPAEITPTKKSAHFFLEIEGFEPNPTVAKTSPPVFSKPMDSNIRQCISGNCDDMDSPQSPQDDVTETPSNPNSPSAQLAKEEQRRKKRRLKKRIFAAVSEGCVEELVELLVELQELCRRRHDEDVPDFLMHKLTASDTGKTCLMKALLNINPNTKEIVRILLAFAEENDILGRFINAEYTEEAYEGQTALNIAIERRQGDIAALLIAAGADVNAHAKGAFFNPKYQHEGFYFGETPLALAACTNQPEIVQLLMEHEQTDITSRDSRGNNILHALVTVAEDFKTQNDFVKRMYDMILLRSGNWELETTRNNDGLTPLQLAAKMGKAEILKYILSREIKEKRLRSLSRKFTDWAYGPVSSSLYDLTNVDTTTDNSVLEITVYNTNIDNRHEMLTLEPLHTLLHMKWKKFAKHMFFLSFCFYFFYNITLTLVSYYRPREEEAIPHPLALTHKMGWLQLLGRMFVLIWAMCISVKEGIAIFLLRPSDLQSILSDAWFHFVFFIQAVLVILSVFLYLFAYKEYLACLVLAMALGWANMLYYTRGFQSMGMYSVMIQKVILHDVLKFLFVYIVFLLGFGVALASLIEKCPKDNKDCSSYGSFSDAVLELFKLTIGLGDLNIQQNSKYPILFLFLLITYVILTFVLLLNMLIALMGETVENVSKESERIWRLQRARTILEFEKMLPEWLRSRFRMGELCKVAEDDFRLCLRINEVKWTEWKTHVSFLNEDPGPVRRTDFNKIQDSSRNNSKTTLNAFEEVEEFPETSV
Method: as §1, §2

TRPV4 = TRPV4 (Homo sapiens, UniProt Q9HBA0); test: TRPV4-mediated calcium influx in N2a cells with targeted expression of human TRPV4 (Ca2+ imaging, activation with 10 nM GSK101); assay type: cell-based; set-up: expressed in transfected cells; host or cells: N2a cells; details: 2.5 μM inhibitor, pre-incubation 10 min
TRPV4, sequence (Q9HBA0 whole entry): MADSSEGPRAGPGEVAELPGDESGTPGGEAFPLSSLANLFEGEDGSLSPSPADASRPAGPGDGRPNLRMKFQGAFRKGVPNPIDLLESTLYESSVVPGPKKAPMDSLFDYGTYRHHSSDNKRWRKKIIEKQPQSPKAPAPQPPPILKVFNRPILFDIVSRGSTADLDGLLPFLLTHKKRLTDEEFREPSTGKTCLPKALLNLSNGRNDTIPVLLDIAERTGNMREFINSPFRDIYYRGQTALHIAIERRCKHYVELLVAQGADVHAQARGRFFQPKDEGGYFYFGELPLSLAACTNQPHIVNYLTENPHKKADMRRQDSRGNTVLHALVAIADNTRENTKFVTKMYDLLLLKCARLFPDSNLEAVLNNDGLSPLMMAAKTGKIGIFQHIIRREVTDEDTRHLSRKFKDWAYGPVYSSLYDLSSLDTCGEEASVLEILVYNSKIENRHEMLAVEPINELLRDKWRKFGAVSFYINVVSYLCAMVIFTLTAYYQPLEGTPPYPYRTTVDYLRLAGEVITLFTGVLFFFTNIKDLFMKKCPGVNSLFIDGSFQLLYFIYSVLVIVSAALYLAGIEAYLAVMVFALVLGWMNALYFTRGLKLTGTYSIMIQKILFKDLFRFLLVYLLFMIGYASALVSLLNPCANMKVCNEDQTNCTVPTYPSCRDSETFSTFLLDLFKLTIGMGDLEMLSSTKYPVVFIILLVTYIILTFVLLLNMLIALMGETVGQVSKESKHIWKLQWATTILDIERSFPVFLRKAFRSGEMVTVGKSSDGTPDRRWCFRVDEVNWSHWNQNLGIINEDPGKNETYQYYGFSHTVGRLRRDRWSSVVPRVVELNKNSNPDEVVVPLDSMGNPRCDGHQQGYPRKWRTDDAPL
Method: Compounds (GSK205, 16-12, 16-13, 16-14, 16-18, 16-8, and 16-8/18hy) were tested for their effect on TRPV4-mediated calcium influx in N2a cultured cells with targeted expression of human TRPV4. Ca2+ imaging was performed according to Li et al. (Environ. Health Perspect. 2011, 119, 784-93) and Moore et al. (Proc. Natl. Acad. Sci. U.S.A. 2013, 110, E3225-E3234). Briefly, Ca2+ imaging of primary mouse epidermal keratinocytes (1° MK) in response to chemical activation of TRPV4 was conducted after loading with 2 μM fura2-AM, following a ratiometric Ca2+-imaging protocol with 340/380 nm blue light for dual excitation. Ratios of emissions were acquired at 0.5 Hz. ΔR/R0 was determined as the fraction of the increase of a given ratio over baseline ratio, divided by baseline ratio. For stimulation of cells with UVB, where fura-2 was not suitable because of the proximity of stimulation with 340/380 nm vs. 295 nm, 2 μM fluo4-AM was used instead. Ca2+ imaging was carried out at 488 nm excitation, acquisition of emissions at 0.5 Hz, expressed as ΔF/F0. TRPV4 was activated with 10 nM GSK101, a specific activator, which had no effect on RFP-transfected cells. Each of the […] compounds were added to a concentration of 2.5 μM, and its effect was observed.
The ordinate is the peak calcium concentration in the cells (average n>75 cells) in nM.

SMILES: CCN(CCc1ccc(Nc2nc(-c3ccccc3)cs2)cc1)Cc1ccccc1 [16-8/18hy]
formalin-evoked nocifensive behavior at the 45-min time-point (BL6 mice): reversal to control levels | formalin-evoked nocifensive behavior, time course (BL6 mice): significantly attenuated nocifensive behavior | formalin-evoked nocifensive behavior, quantitation (in particular second phase) (BL6 mice): significant attenuation of nocifensive behavior | inhibitory activity against human TRPA1 (human TRPA1): showed inhibitory activity | Ca2+ transience, TRPV1 (human TRPV1): not affected | Ca2+ transience, TRPV3 (human TRPV3): not affected | inhibition of TRPV4-mediated calcium influx (peak calcium concentration in the cells) (TRPV4): did not show enhanced inhibition over 16-8

inhibition of TRPA1 activity (human TRPA1; doses below or equaling 25 μM): did not inhibit TRPA1 activity | inhibition of TRPV4-mediated calcium influx (peak calcium concentration in the cells) (TRPV4): very low potency
SMILES: CN(CCc1ccc(Nc2nc(-c3cccnc3)cs2)cc1)Cc1ccccc1 [GSK205]
formalin-evoked nocifensive behavior, time course (BL6 mice): not different from control | formalin-evoked nocifensive behavior, quantitation (in particular second phase) (BL6 mice): lack of effect

SMILES: CN(CCc1ccc(Nc2nc(-c3ccccc3)cs2)cc1)Cc1ccccc1 [Compound 16-8]
formalin-evoked nocifensive behavior at the 45-min time-point (BL6 mice): reduction to control levels | formalin-evoked nocifensive behavior, time course (BL6 mice): significantly attenuated nocifensive behavior | formalin-evoked nocifensive behavior, quantitation (in particular second phase) (BL6 mice): significant attenuation of nocifensive behavior | inhibitory activity against human TRPA1 (human TRPA1): showed inhibitory activity | Ca2+ transience, TRPV1 (human TRPV1): not affected | Ca2+ transience, TRPV3 (human TRPV3): not affected | inhibition of TRPV4-mediated calcium influx (peak calcium concentration in the cells) (TRPV4): most potent
